Data reported in US20020155126A1, “Pharmacological composition containing yeast cell wall fraction” (priority 2001, published 2002).

Legend:
[1] = system: NC/Nga mice (model for delayed-type hypersensitivity); experiment: Test Example 5: inhibition effect of delayed-type hypersensitivity, NC/Nga mice; assay type: in vivo
Procedure: The same test mice and test foodstuff as in Test Example 4 were used to conduct a test on the inhibition effect of delayed-type hypersensitivity. The NC/Nga mice, as described above, are known as a model for atopic dermatitis, but can also be used as a model for delayed-type hypersensitivity. The administration of test foodstuff to the test mice was continued until the end of the test. Hapten sensitization was conducted 1 week after the commencement of the foodstuff administration, hapten challenge was conducted 1 week thereafter upon measuring the thickening of the auricle portion prior to the challenge, and measurement of the thickening of the auricle portion 24 hours later was conducted once again. Hapten sensitization was conducted by applying picryl chloride 7% by weight ethanol solution 100 μl to the abdomen, and the hapten challenge was conducted by applying picryl chloride 1% by weight olive oil solution 10 μl to both faces of each auricle portion. The anti-inflammation effect was measured by seeking the edema ratio and tumidity from the aforementioned test results. […]

[2] = system: NC/Nga mice (models for atopic dermatitis); experiment: Test Example 4: anti-atopic dermatitis test, NC/Nga mice, picryl chloride hapten challenge; assay type: in vivo
Procedure: Next, test was conducted on the anti-atopic dermatitis effect of the yeast cell wall fraction. As a test specimen, NC/Nga mice (5.5 weeks old) were preliminarily raised for 2 weeks with solid foodstuff (CE-2, manufactured by Clea Japan, Inc.) and, after adaptation to the experimental environment, were used upon being separated into groups of 7 mice each. […] Hapten sensitization was conducted 1 week after the commencement of test foodstuff administration, and the initial (first) hapten challenge was conducted a week thereafter, and a hapten challenge was conducted for each elapsed week thereafter, and the final (eighth) hapten challenge was conducted […] after the commencement of test foodstuff administration. […] In the aforementioned anti-atopic dermatitis test, the clinical score and total plasma IgE level were measured with time. […] The clinical score was comprehensively evaluated in […] evaluation phases of score (0)none, (1)mild, (2)moderate, (3)severe, regarding the 5 symptoms of acomia of scalp; bleeding and erosion of scalp; bleeding and erosion of auricle portion; corpulence, edema, and purpura of auricle portion; and deformation and disappearance of auricle porition. […]

[3] = after the completion of administration of the test foodstuff

## OC[C@H]1O[C@H](OC[C@H]2O[C@H](O[C@]3(CO)O[C@H](CO)[C@@H](O)[C@@H]3O)[C@H](O)[C@@H](O)[C@@H]2O)[C@H](O)[C@@H](O)[C@H]1O [Raffinose]
[1]; [3]
  Final Weight, Mean: 24.2 g
[1]; daily foodstuff ingestion amount, delayed-type hypersensitivity test
  Ingestion, Mean: 4.2 g/day
[2]; [3]
  Final Weight, Mean: 25.9 g
[2]; daily foodstuff ingestion amount, anti-atopic dermatitis test
  Ingestion, Mean: 4.05 g/day
